Holding throughout (test): NCI anticancer screen, dose series, 48 h
The test system of experiment [1] is TK-10 renal.
Experiment [2] relates to A498 renal.
For experiment [3], the system named is MDA-MB-435.
In experiment [4] the test system is NCI-H226 lung.
Experiment [5] relates to A549 NSCLC.
Experiment [6] relates to OVCAR-3 ovarian.
For experiment [7], the system named is SF-539 CNS.
The subject of experiment [8] is SK-MEL-28 melanoma.
The subject of experiment [9] is NCI-H23 lung.
Experiment [10] has as its system ACHN renal.

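These data come from cells grown in 96-well plates and exposed to compound for 48 hours at five concentrations. GI50 is the concentration that inhibits growth by half. TGI is the concentration that stops growth completely.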 Where only a bound is given, the exact number is not on record here.

With `CC(C)c1c(C(=O)Nc2ccccc2)c(-c2ccccc2)c(-c2ccc(F)cc2)n1CC[C@@H]1CC=CC(=O)O1`, the GI50 was 2.18 µM in [1]; 4.92 µM in experiment [2]; 1700 nM in [3]; 1.71 µM in experiment [4]; 1990 nM in experiment [5]; 1.8 µM in experiment [6]. In addition, the GI50 is 1610 nM in [7], 1.69 µM in experiment [8], 2.03 µM in [9] and 1570 nM in experiment [10]. Besides, the TGI in experiment [1] was 4.67 µM; in experiment [2], 19.1 µM; in experiment [3], 3.27 µM; in experiment [4] it was 3.26 µM; in experiment [5], 4.6 µM; in [6] it was 3.31 µM. In addition, the TGI turned out to be 3.14 µM in experiment [7], 3.14 µM in [8], 4.04 µM in experiment [9] and 2.92 µM in experiment [10].
Turning to `CC(C)(O)C#Cc1ccc(/C=C/C(=O)c2ccccc2)s1`, the GI50 in experiment [1] is 19.4 µM; in experiment [2], 17.7 µM; in experiment [3], 12600 nM; in [4], 18.8 µM; in [5], 16500 nM; in experiment [6] it was 17 µM. Besides, the GI50 in experiment [7] is 15800 nM; in experiment [8] it was 16 µM; in experiment [9], 16.9 µM; in experiment [10], 17000 nM. Also, the TGI in experiment [1] is 35.8 µM; in [2], 32.2 µM; in experiment [3], 26.4 µM; in experiment [4], 42.3 µM; in [5] it was 30.5 µM; in experiment [6], 31.5 µM. The TGI was 29.2 µM in [7], 30.2 µM in experiment [8], 34.7 µM in experiment [9] and 30.7 µM in [10].
As to `CCCCOc1ccc(NC(=O)n2nc(N)c3ccccc32)cc1`, the GI50 in experiment [1] is 26.9 µM; in experiment [2] it was 20.1 µM; in [3], 22800 nM; in experiment [4], 21 µM; in experiment [5], 21600 nM; in experiment [6], 19 µM. The GI50 is 17200 nM in experiment [7], 28.3 µM in experiment [8], 22.6 µM in experiment [9] and 22700 nM in experiment [10]. For the same molecule, the TGI in [1] was over 73.5 µM; in experiment [2], 49.4 µM; in [3] it was over 65.1 µM; in experiment [4] it was over 85.2 µM; in [5] it was over 87.9 µM; in [6], 42.2 µM. Also, the TGI is 35.7 µM in experiment [7], over 90.5 µM in experiment [8], 57.5 µM in [9] and over 89.4 µM in [10].
Consider `CC/C(=C(/c1ccc(OCCN(C)C)cc1)c1ccc(OC(=O)CCC(=O)c2c(C)[nH]c(/C=C3\N=C(c4ccc[nH]4)C=C3OC)c2C)cc1)c1ccccc1`, for which the GI50 in experiment [1] was 4.87 µM; in [2] it was 2.54 µM; in experiment [3], 2560 nM; in experiment [4], 3.54 µM; in experiment [5], 2630 nM; in experiment [6], 2.08 µM. Besides, the GI50 in experiment [7] is 2590 nM; in experiment [8] it was 2.89 µM; in [9], 4.02 µM; in experiment [10], 2570 nM. Also, the TGI in experiment [1] was 15.7 µM; in [2], 16.8 µM; in [3] it was 10.2 µM; in experiment [4] it was 22.5 µM; in experiment [5] it was 10.6 µM; in experiment [6] it was 10.3 µM. Moreover, the TGI worked out at 9.26 µM in experiment [7], 12.4 µM in experiment [8], 18.7 µM in experiment [9] and 15.9 µM in experiment [10].
On to `O=c1c2ccccc2c(Br)c(Br)c2ccccc12`, for which the GI50 was 3.91 µM in experiment [1]; 5.37 µM in experiment [2]; 4560 nM in experiment [3]; 24.1 µM in [4]; 20600 nM in [5]; 3.37 µM in experiment [6]. Also, the GI50 is 13300 nM in experiment [7], 24.9 µM in experiment [8], 12.7 µM in [9] and 7460 nM in [10]. Besides, the TGI in [1] was 18 µM; in [2] it was 23 µM; in experiment [3], 21 µM; in experiment [4], 79.5 µM; in experiment [5], 73 µM; in [6], 12 µM. Further, the TGI in experiment [7] was 37.2 µM; in [8], over 100 µM; in [9], 38.7 µM; in experiment [10] it was 21.9 µM.
With `c1ccc2c(c1)sc1c3cnccc3ccc21`, the TGI in experiment [1], in [2], in experiment [3], in [4], in experiment [5] and in experiment [6] was over 100 µM in each case. For the same molecule, the TGI in experiment [7], in [8], in experiment [9] and in experiment [10] was over 100 µM each time.
Turning to `O=C1C2C(C(=O)[N]1[Hg][c]1cccs1)C1(Cl)C(Cl)=C(Cl)C2(Cl)C1(Cl)Cl` (configuration not stated), the GI50 is 1.65 µM in experiment [1]; 2.29 µM in [2]; 1470 nM in [3]; 6.88 µM in experiment [4]; 5940 nM in [5]; 0.283 µM in experiment [6]. Moreover, the GI50 in experiment [7] was 2080 nM; in experiment [8] it was 1.24 µM; in experiment [9] it was 1.62 µM; in experiment [10], 1610 nM. Further, the TGI in experiment [1] was 3.04 µM; in [2] it was 6.05 µM; in experiment [3] it was 3.05 µM; in [4] it was 37.8 µM; in experiment [5], 16.7 µM; in experiment [6], 0.904 µM. Moreover, the TGI in [7] was 4.76 µM; in [8], 2.7 µM; in experiment [9] it was 3.14 µM; in experiment [10], 3.04 µM.
`CCCc1cc(O)c2c3c(c(=O)oc2c1)CN(C)CC3`: the GI50 was over 100 µM in experiment [1]; 15.8 µM in [2]; 43500 nM in experiment [3]; over 100 µM in experiment [4]; over 100000 nM in experiment [5]; over 100 µM in experiment [6]. In addition, the GI50 is 43200 nM in experiment [7], 21.8 µM in experiment [8], 98.9 µM in experiment [9] and over 100000 nM in experiment [10]. For the same molecule, the TGI in experiment [1] is over 100 µM; in experiment [2] it was 98.5 µM; in experiment [3] it was over 100 µM; in [4] it was over 100 µM; in experiment [5], over 100 µM; in experiment [6], over 100 µM. Also, the TGI was over 100 µM in experiment [7], 67.4 µM in experiment [8], over 100 µM in experiment [9] and over 100 µM in [10].
In the case of `CCOc1ccc(-c2cnnn2-c2nonc2-n2cccc2)cc1`, the GI50 in [1] is 0.597 µM; in [2] it was 0.203 µM; in experiment [3] it was 34.5 nM; in experiment [4] it was 1.52 µM; in experiment [5] it was 388 nM; in experiment [6], 0.233 µM. For the same molecule, the GI50 in [7] is 319 nM; in [8], 0.402 µM; in [9], 0.282 µM; in [10] it was 689 nM. The TGI in experiment [1] is over 100 µM; in experiment [2] it was 0.924 µM; in [3], 0.168 µM; in [4], over 100 µM; in experiment [5], over 100 µM; in [6], 0.65 µM. The results for the TGI in experiment [7], in [8] and in [10] were 3.77 µM, over 100 µM and over 100 µM, respectively.
Take `Cc1nc(-c2ccccc2)c(Cc2ccccc2O)c(=O)[nH]1`: the TGI in experiment [1], in experiment [2], in experiment [3], in [4], in experiment [5] and in [6] was over 100 µM in each case. Also, the TGI in experiment [7], in experiment [8], in [9] and in experiment [10] was over 100 µM each time.
Regarding `N#Cc1cccc(OCc2nc(N)nc(N)c2-c2ccc(Cl)c(Cl)c2)c1`, the GI50 in experiment [1] was 9.32 µM; in experiment [2] it was 2.9 µM; in experiment [3], 486 nM; in [4], 7.44 µM; in [5], 426 nM; in [6], 5.53 µM. Moreover, the GI50 in experiment [7] is 1430 nM; in [8], 14.5 µM; in [9], 2.42 µM; in experiment [10], 896 nM. For the same molecule, the TGI in experiment [1], in experiment [2], in [3], in experiment [4], in experiment [5] and in experiment [6] was over 100 µM throughout. The TGI is 65.4 µM in experiment [7], over 100 µM in experiment [8], over 100 µM in experiment [9] and over 100 µM in experiment [10].
`CN(CCCCCl)P(=O)(OCc1ccc([N+](=O)[O-])o1)OCC1OC(n2ccc(N)nc2=O)C(F)(F)C1O` (configuration not stated): the TGI was over 82.7 µM in experiment [1]; over 74.5 µM in experiment [2]; over 50.9 µM in experiment [3]; over 100 µM in experiment [4]; over 59.5 µM in [5]; over 45.5 µM in experiment [6]. Further, the TGI in experiment [7] was 0.427 µM; in experiment [8], over 100 µM; in experiment [9], 1.53 µM. Besides, the GI50 was 5.8 µM in experiment [2]; 473 nM in experiment [3]; 15.7 µM in [4]; 730 nM in experiment [5]; 3.15 µM in experiment [6]; 41.7 nM in experiment [7]. The GI50 in experiment [8] was 43.1 µM; in experiment [9], 0.0742 µM; in [10], 37.4 nM.

The values are drawn from PubChem BioAssay (NCI).
